# Test results taken from patent US8192962B2, “Processes for detecting toxic substances” (Daikin Industries, Ltd., priority 2001, dated 2012).
# Tested on: Genes belonging to other category
# Experiment: DNA chip mRNA expression in yeast, genes belonging to other category (Table 9)
# Assay type: cell-based, Saccharomyces cerevisiae S288C
# Method in brief: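 In this screen, yeast in logarithmic growth are challenged for two hours with a toxic substance at a non-lethal inhibitory concentration. Their mRNA, converted to Cy3- or Cy5-labeled cDNA, hybridizes at 65° C. to a chip spanning every yeast gene, and expression is expressed as a ratio to untreated cells.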
smiles,measurement,setting,value
"Cl[C@H]1[C@H](Cl)[C@@H](Cl)[C@@H](Cl)[C@H](Cl)[C@H]1Cl [(7), γ-hexachlorocyclohexane]",The level of expressed mRNA in the presence of chemical substance/The level of expressed mRNA in the absence of chemical substance,yeast gene YKL013C,1.8
same,The level of expressed mRNA in the presence of chemical substance/The level of expressed mRNA in the absence of chemical substance,yeast gene YKL039W,2.0
same,The level of expressed mRNA in the presence of chemical substance/The level of expressed mRNA in the absence of chemical substance,yeast gene YKL041W,1.0
same,The level of expressed mRNA in the presence of chemical substance/The level of expressed mRNA in the absence of chemical substance,yeast gene YKL096W,0.2
same,The level of expressed mRNA in the presence of chemical substance/The level of expressed mRNA in the absence of chemical substance,yeast gene YKL139W,2.6
same,The level of expressed mRNA in the presence of chemical substance/The level of expressed mRNA in the absence of chemical substance,yeast gene YKL165C,2.1
same,The level of expressed mRNA in the presence of chemical substance/The level of expressed mRNA in the absence of chemical substance,yeast gene YKL193C,2.1
same,The level of expressed mRNA in the presence of chemical substance/The level of expressed mRNA in the absence of chemical substance,yeast gene YLR120C,1.5
same,The level of expressed mRNA in the presence of chemical substance/The level of expressed mRNA in the absence of chemical substance,yeast gene YLR136C,3.9
same,The level of expressed mRNA in the presence of chemical substance/The level of expressed mRNA in the absence of chemical substance,yeast gene YLR178C,3.3
same,The level of expressed mRNA in the presence of chemical substance/The level of expressed mRNA in the absence of chemical substance,yeast gene YLR250W,1.9
same,The level of expressed mRNA in the presence of chemical substance/The level of expressed mRNA in the absence of chemical substance,yeast gene YLR327C,5.7
same,The level of expressed mRNA in the presence of chemical substance/The level of expressed mRNA in the absence of chemical substance,yeast gene YLR356W,1.1
same,The level of expressed mRNA in the presence of chemical substance/The level of expressed mRNA in the absence of chemical substance,yeast gene YLR362W,1.9
same,The level of expressed mRNA in the presence of chemical substance/The level of expressed mRNA in the absence of chemical substance,yeast gene YLR391W,0.7
same,The level of expressed mRNA in the presence of chemical substance/The level of expressed mRNA in the absence of chemical substance,yeast gene YLR429W,1.3
same,The level of expressed mRNA in the presence of chemical substance/The level of expressed mRNA in the absence of chemical substance,yeast gene YMR004W,1.2
same,The level of expressed mRNA in the presence of chemical substance/The level of expressed mRNA in the absence of chemical substance,yeast gene YMR094W,0.8
same,The level of expressed mRNA in the presence of chemical substance/The level of expressed mRNA in the absence of chemical substance,yeast gene YMR104C,1.5
same,The level of expressed mRNA in the presence of chemical substance/The level of expressed mRNA in the absence of chemical substance,yeast gene YMR226C,1.8
same,The level of expressed mRNA in the presence of chemical substance/The level of expressed mRNA in the absence of chemical substance,yeast gene YMR275C,0.8
same,The level of expressed mRNA in the presence of chemical substance/The level of expressed mRNA in the absence of chemical substance,yeast gene YMR276W,1.1
same,The level of expressed mRNA in the presence of chemical substance/The level of expressed mRNA in the absence of chemical substance,yeast gene YMR314W,1.1
same,The level of expressed mRNA in the presence of chemical substance/The level of expressed mRNA in the absence of chemical substance,yeast gene YNL006W,1.6
same,The level of expressed mRNA in the presence of chemical substance/The level of expressed mRNA in the absence of chemical substance,yeast gene YNL007C,1.2
same,The level of expressed mRNA in the presence of chemical substance/The level of expressed mRNA in the absence of chemical substance,yeast gene YNL093W,1.4
same,The level of expressed mRNA in the presence of chemical substance/The level of expressed mRNA in the absence of chemical substance,yeast gene YNL333W,2.9
same,The level of expressed mRNA in the presence of chemical substance/The level of expressed mRNA in the absence of chemical substance,yeast gene YNR010W,1.5
same,The level of expressed mRNA in the presence of chemical substance/The level of expressed mRNA in the absence of chemical substance,yeast gene YNR069C,1.4
same,The level of expressed mRNA in the presence of chemical substance/The level of expressed mRNA in the absence of chemical substance,yeast gene YOL013C,1.7
same,The level of expressed mRNA in the presence of chemical substance/The level of expressed mRNA in the absence of chemical substance,yeast gene YOL164W,2.2
same,The level of expressed mRNA in the presence of chemical substance/The level of expressed mRNA in the absence of chemical substance,yeast gene YOR036W,1.8
same,The level of expressed mRNA in the presence of chemical substance/The level of expressed mRNA in the absence of chemical substance,yeast gene YOR117W,3.3
same,The level of expressed mRNA in the presence of chemical substance/The level of expressed mRNA in the absence of chemical substance,yeast gene YOR124C,1.1
same,The level of expressed mRNA in the presence of chemical substance/The level of expressed mRNA in the absence of chemical substance,yeast gene YOR132W,1.4
same,The level of expressed mRNA in the presence of chemical substance/The level of expressed mRNA in the absence of chemical substance,yeast gene YOR157C,1.2
same,The level of expressed mRNA in the presence of chemical substance/The level of expressed mRNA in the absence of chemical substance,yeast gene YOR181W,0.7
same,The level of expressed mRNA in the presence of chemical substance/The level of expressed mRNA in the absence of chemical substance,yeast gene YOR185C,1.3
same,The level of expressed mRNA in the presence of chemical substance/The level of expressed mRNA in the absence of chemical substance,yeast gene YOR198C,1.6
same,The level of expressed mRNA in the presence of chemical substance/The level of expressed mRNA in the absence of chemical substance,yeast gene YOR259C,1.3
same,The level of expressed mRNA in the presence of chemical substance/The level of expressed mRNA in the absence of chemical substance,yeast gene YOR261C,1.9
same,The level of expressed mRNA in the presence of chemical substance/The level of expressed mRNA in the absence of chemical substance,yeast gene YOR288C,2.0
same,The level of expressed mRNA in the presence of chemical substance/The level of expressed mRNA in the absence of chemical substance,yeast gene YOR355W,1.1
same,The level of expressed mRNA in the presence of chemical substance/The level of expressed mRNA in the absence of chemical substance,yeast gene YOR383C,8.0
same,The level of expressed mRNA in the presence of chemical substance/The level of expressed mRNA in the absence of chemical substance,yeast gene YPL089C,0.9
same,The level of expressed mRNA in the presence of chemical substance/The level of expressed mRNA in the absence of chemical substance,yeast gene YPL109C,1.8
same,The level of expressed mRNA in the presence of chemical substance/The level of expressed mRNA in the absence of chemical substance,yeast gene YPL149W,1.2
same,The level of expressed mRNA in the presence of chemical substance/The level of expressed mRNA in the absence of chemical substance,yeast gene YPL154C,1.5
same,The level of expressed mRNA in the presence of chemical substance/The level of expressed mRNA in the absence of chemical substance,yeast gene YPR103W,1.6
same,The level of expressed mRNA in the presence of chemical substance/The level of expressed mRNA in the absence of chemical substance,yeast gene YPR108W,1.6
